Source: patent US20150210660A1, “ALICYCLIC EPOXY COMPOUND AND METHOD FOR PRODUCING SAME” (DAICEL CORPORATION, priority 2012, published 2015)

Assay: Volatility evaluation: boiling point measurement under reduced pressure using a distillator
Assay type: physicochemical
Conditions: 760 Torr; 101325 Pa; calculated from approximate curve of the measured boiling points
Description: The 3,4-epoxycyclohexylmethyl 3,5,5-trimethylhexanoate prepared in Example 1 was subjected to boiling point measurement under reduced pressure using a distillator.
The measured boiling points at the individual pressures were plotted on a logarithmic graph (semilogarithmic graph with the logarithmic scale indicating the pressure) to give an approximate curve. Using the approximate curve, a boiling point of the product at normal atmospheric pressure (760 Torr; 101325 Pa) was calculated and found to be 307° C.
With `CC(CC(=O)OCC1CCC2OC2C1)CC(C)(C)C` (centres unmarked) [Product of Example 1, 3,4-epoxycyclohexylmethyl 3,5,5-trimethylhexanoate] the “boiling point at normal atmospheric pressure” value was 307 °C.

Same assay, conditions: at 11 Torr (1467 Pa)
With `CC(CC(=O)OCC1CCC2OC2C1)CC(C)(C)C` (centres unmarked) [Product of Example 1, 3,4-epoxycyclohexylmethyl 3,5,5-trimethylhexanoate] the boiling point was 191 °C.

Same assay, conditions: at 31 Torr (4133 Pa)
`CC(CC(=O)OCC1CCC2OC2C1)CC(C)(C)C` (centres unmarked) [Product of Example 1, 3,4-epoxycyclohexylmethyl 3,5,5-trimethylhexanoate] gave a boiling point of 218 °C.

Same assay, conditions: at 50 Torr (6666 Pa)
In the case of `CC(CC(=O)OCC1CCC2OC2C1)CC(C)(C)C` (centres unmarked) [Product of Example 1, 3,4-epoxycyclohexylmethyl 3,5,5-trimethylhexanoate], the boiling point is reported as 233 °C.

Assay: Evaluation of reactivity with acid (stirring with 2-ethylhexanoic acid in 1,3,5-trimethylbenzene at 150° C.)
Assay type: physicochemical
Conditions: as compared with the other epoxides of Table 2
Description: A mixture was prepared by blending 5.2 g of the 3,4-epoxycyclohexylmethyl 3,5,5-trimethylhexanoate prepared in Example 1 (product of Example 1), 1.4 g of 2-ethylhexanoic acid (trade name Octanoic Acid, supplied by Kyowa Hakko Chemical Co., Ltd.), and 8.5 g of 1,3,5-trimethylbenzene (reagent, supplied by Wako Pure Chemical Industries, Ltd.). The mixture was stirred at 150° C. for 6 hours. The acid value and oxirane oxygen content of the mixture were measured before the stirring with heating, and 2 hours, 4 hours, and 6 hours into the stirring.
The oxirane oxygen content measurement in the evaluation of reactivity with acid was performed by HBr titrimetry in which titration was performed with a N/10 hydrogen bromide solution in acetic acid and with crystal violet as an indicator. The acid value measurement was performed in conformance with a method described in JIS K 0070.
Instead of 3,4-epoxycyclohexylmethyl 3,5,5-trimethylhexanoate, there were prepared 3,4-epoxycyclohexylmethyl(3,4-epoxy)cyclohexane carboxylate (trade name CELLOXIDE 2021P, supplied by Daicel Corporation), 4-vinylcyclohexene oxide (trade name CELLOXIDE 2000, supplied by Daicel Corporation), 1-methyl-4-(2-methyloxiranyl)-7-oxabicyclo[4.1.0]heptane (trade name CELLOXIDE 3000, supplied by Daicel Corporation), D-limonene oxide (supplied by Nippon Terpene Chemicals, Inc.), and di-2-ethylhexyl epoxyhexahydrophthalate (trade name SANSO CIZER E-PS, supplied by New Japan Chemical Co., Ltd.). These epoxides were used in charged amounts given in Table 1 and subjected to evaluation of reactivity with an acid (2-ethylhexanoic acid) by the above procedure.
Table 2 also gives acid residual percentages as calculated from the acid values. The acid residual percentages are percentages of the acid present in the system (in the mixture) at the individual timings (after 2 hours, 4 hours, and 6 hours) in which the amount of the acid present in the system before the stirring with heating (0 hour) was defined as 100%.
With `CC(CC(=O)OCC1CCC2OC2C1)CC(C)(C)C` (centres unmarked) [Product of Example 1, 3,4-epoxycyclohexylmethyl 3,5,5-trimethylhexanoate] the “acid-scavenging capability (reactivity with the acid)” value was “higher acid-scavenging capability”.

Same assay, conditions: stirring time 0 hr (before heating), defined as 100%
In the case of `CC(CC(=O)OCC1CCC2OC2C1)CC(C)(C)C` (centres unmarked) [Product of Example 1, 3,4-epoxycyclohexylmethyl 3,5,5-trimethylhexanoate], the Acid residual percentage is reported as 100%. Compound `C=CC1CCC2OC2C1` (centres unmarked) [CELLOXIDE 2000, 4-vinylcyclohexene oxide] has an Acid residual percentage of 100%. With `CC1(C2CCC3(C)OC3C2)CO1` (centres unmarked) [CELLOXIDE 3000, 1-methyl-4-(2-methyloxiranyl)-7-oxabicyclo[4.1.0]heptane] the Acid residual percentage was 100%.

Same assay, conditions: stirring time 0 hr (before heating); HBr titrimetry
`CC(CC(=O)OCC1CCC2OC2C1)CC(C)(C)C` (centres unmarked) [Product of Example 1, 3,4-epoxycyclohexylmethyl 3,5,5-trimethylhexanoate] showed an Oxirane oxygen content of 1.82%. Work on `C=CC1CCC2OC2C1` (centres unmarked) [CELLOXIDE 2000, 4-vinylcyclohexene oxide] yielded an Oxirane oxygen content of 1.92%. In the case of `CC1(C2CCC3(C)OC3C2)CO1` (centres unmarked) [CELLOXIDE 3000, 1-methyl-4-(2-methyloxiranyl)-7-oxabicyclo[4.1.0]heptane], the Oxirane oxygen content is reported as 1.81%.

Same assay, conditions: stirring time 0 hr (before heating); JIS K 0070
`CC(CC(=O)OCC1CCC2OC2C1)CC(C)(C)C` (centres unmarked) [Product of Example 1, 3,4-epoxycyclohexylmethyl 3,5,5-trimethylhexanoate] showed an Acid value of 37.66 KOH-mg/g. In the case of `C=CC1CCC2OC2C1` (centres unmarked) [CELLOXIDE 2000, 4-vinylcyclohexene oxide], the Acid value is reported as 35.90 KOH-mg/g. For `CC1(C2CCC3(C)OC3C2)CO1` (centres unmarked) [CELLOXIDE 3000, 1-methyl-4-(2-methyloxiranyl)-7-oxabicyclo[4.1.0]heptane], the Acid value was 36.04 KOH-mg/g.

Same assay, conditions: stirring time 2 hrs at 150° C.; HBr titrimetry
`CC(CC(=O)OCC1CCC2OC2C1)CC(C)(C)C` (centres unmarked) [Product of Example 1, 3,4-epoxycyclohexylmethyl 3,5,5-trimethylhexanoate] showed an Oxirane oxygen content of 1.20%. With `C=CC1CCC2OC2C1` (centres unmarked) [CELLOXIDE 2000, 4-vinylcyclohexene oxide] the Oxirane oxygen content was 146%. For `CC1(C2CCC3(C)OC3C2)CO1` (centres unmarked) [CELLOXIDE 3000, 1-methyl-4-(2-methyloxiranyl)-7-oxabicyclo[4.1.0]heptane], the Oxirane oxygen content was 0.91%.

Same assay, conditions: stirring time 2 hrs at 150° C.; JIS K 0070
For `CC(CC(=O)OCC1CCC2OC2C1)CC(C)(C)C` (centres unmarked) [Product of Example 1, 3,4-epoxycyclohexylmethyl 3,5,5-trimethylhexanoate], the Acid value was 20.32 KOH-mg/g. With `C=CC1CCC2OC2C1` (centres unmarked) [CELLOXIDE 2000, 4-vinylcyclohexene oxide] the Acid value was 23.80 KOH-mg/g. In the case of `CC1(C2CCC3(C)OC3C2)CO1` (centres unmarked) [CELLOXIDE 3000, 1-methyl-4-(2-methyloxiranyl)-7-oxabicyclo[4.1.0]heptane], the Acid value is reported as 24.52 KOH-mg/g.

Same assay, conditions: stirring time 2 hrs at 150° C.; calculated from acid values, 0 hr = 100%
Work on `CC(CC(=O)OCC1CCC2OC2C1)CC(C)(C)C` (centres unmarked) [Product of Example 1, 3,4-epoxycyclohexylmethyl 3,5,5-trimethylhexanoate] yielded an Acid residual percentage of 54%. Compound `C=CC1CCC2OC2C1` (centres unmarked) [CELLOXIDE 2000, 4-vinylcyclohexene oxide] has an Acid residual percentage of 66%. Work on `CC1(C2CCC3(C)OC3C2)CO1` (centres unmarked) [CELLOXIDE 3000, 1-methyl-4-(2-methyloxiranyl)-7-oxabicyclo[4.1.0]heptane] yielded an Acid residual percentage of 68%.

Same assay, conditions: stirring time 4 hrs at 150° C.; HBr titrimetry
With `CC(CC(=O)OCC1CCC2OC2C1)CC(C)(C)C` (centres unmarked) [Product of Example 1, 3,4-epoxycyclohexylmethyl 3,5,5-trimethylhexanoate] the Oxirane oxygen content was 1.00%. `C=CC1CCC2OC2C1` (centres unmarked) [CELLOXIDE 2000, 4-vinylcyclohexene oxide] gave an Oxirane oxygen content of 1.25%. Compound `CC1(C2CCC3(C)OC3C2)CO1` (centres unmarked) [CELLOXIDE 3000, 1-methyl-4-(2-methyloxiranyl)-7-oxabicyclo[4.1.0]heptane] has an Oxirane oxygen content of 0.71%.

Same assay, conditions: stirring time 4 hrs at 150° C.; JIS K 0070
With `CC(CC(=O)OCC1CCC2OC2C1)CC(C)(C)C` (centres unmarked) [Product of Example 1, 3,4-epoxycyclohexylmethyl 3,5,5-trimethylhexanoate] the Acid value was 13.13 KOH-mg/g. In the case of `C=CC1CCC2OC2C1` (centres unmarked) [CELLOXIDE 2000, 4-vinylcyclohexene oxide], the Acid value is reported as 17.54 KOH-mg/g. For `CC1(C2CCC3(C)OC3C2)CO1` (centres unmarked) [CELLOXIDE 3000, 1-methyl-4-(2-methyloxiranyl)-7-oxabicyclo[4.1.0]heptane], the Acid value was 22.04 KOH-mg/g.

Same assay, conditions: stirring time 4 hrs at 150° C.; calculated from acid values, 0 hr = 100%
Work on `CC(CC(=O)OCC1CCC2OC2C1)CC(C)(C)C` (centres unmarked) [Product of Example 1, 3,4-epoxycyclohexylmethyl 3,5,5-trimethylhexanoate] yielded an Acid residual percentage of 35%. Work on `C=CC1CCC2OC2C1` (centres unmarked) [CELLOXIDE 2000, 4-vinylcyclohexene oxide] yielded an Acid residual percentage of 49%. With `CC1(C2CCC3(C)OC3C2)CO1` (centres unmarked) [CELLOXIDE 3000, 1-methyl-4-(2-methyloxiranyl)-7-oxabicyclo[4.1.0]heptane] the Acid residual percentage was 61%.

Same assay, conditions: stirring time 6 hrs at 150° C.; HBr titrimetry
For `CC(CC(=O)OCC1CCC2OC2C1)CC(C)(C)C` (centres unmarked) [Product of Example 1, 3,4-epoxycyclohexylmethyl 3,5,5-trimethylhexanoate], the Oxirane oxygen content was 0.89%. `C=CC1CCC2OC2C1` (centres unmarked) [CELLOXIDE 2000, 4-vinylcyclohexene oxide] gave an Oxirane oxygen content of 1.15%. For `CC1(C2CCC3(C)OC3C2)CO1` (centres unmarked) [CELLOXIDE 3000, 1-methyl-4-(2-methyloxiranyl)-7-oxabicyclo[4.1.0]heptane], the Oxirane oxygen content was 0.61%.

Same assay, conditions: stirring time 6 hrs at 150° C.; JIS K 0070
Compound `CC(CC(=O)OCC1CCC2OC2C1)CC(C)(C)C` (centres unmarked) [Product of Example 1, 3,4-epoxycyclohexylmethyl 3,5,5-trimethylhexanoate] has an Acid value of 9.98 KOH-mg/g. Compound `C=CC1CCC2OC2C1` (centres unmarked) [CELLOXIDE 2000, 4-vinylcyclohexene oxide] has an Acid value of 12.90 KOH-mg/g. `CC1(C2CCC3(C)OC3C2)CO1` (centres unmarked) [CELLOXIDE 3000, 1-methyl-4-(2-methyloxiranyl)-7-oxabicyclo[4.1.0]heptane] showed an Acid value of 18.65 KOH-mg/g.

Same assay, conditions: stirring time 6 hrs at 150° C.; calculated from acid values, 0 hr = 100%
In the case of `CC(CC(=O)OCC1CCC2OC2C1)CC(C)(C)C` (centres unmarked) [Product of Example 1, 3,4-epoxycyclohexylmethyl 3,5,5-trimethylhexanoate], the Acid residual percentage is reported as 27%. `C=CC1CCC2OC2C1` (centres unmarked) [CELLOXIDE 2000, 4-vinylcyclohexene oxide] showed an Acid residual percentage of 36%. `CC1(C2CCC3(C)OC3C2)CO1` (centres unmarked) [CELLOXIDE 3000, 1-methyl-4-(2-methyloxiranyl)-7-oxabicyclo[4.1.0]heptane] showed an Acid residual percentage of 52%.
